Results reported in patent publication US20080280835A1, “Novel Use of Peptide Compounds For Treating Muscle Pain” (priority 2005, published 2008).

Assays:
[1] = tested on: Wistar rats; assay: Mechanical hyperalgesia (Randall-Selitto paw pressure) in iodoacetate rat model of osteoarthritic pain; type: in vivo; settings: for paw pressure withdrawal threshold compared to iodoacetate/vehicle treated animals: day 3 after iodoacetate
[2] = tested on: Sprague Dawley rats; assay: TNF-induced muscle pressure hyperalgesia, gastrocnemius muscle (Randall-Selitto analgesimeter); type: in vivo, rat; settings: for reversal of muscular mechanical hyperalgesia (withdrawal thresholds to pressure): 18 hours after TNF 1 μg into gastrocnemius, 30 to 60 minutes after drug; for Maximal Possible Effect (MPE) versus vehicle, muscle pressure: FIG. 2; for full reversal of the muscle hyperalgesia: doses tested i.p.: pregabalin 30 and 100 mg/kg, gabapentin 100 mg/kg
Description: (§1) Intramuscular injection of tumor necrosis factor-alpha (TNF) was used as a model of muscular mechanical hyperalgesia, which occurs in the human fibromyalgia, myofascial pain syndrome, back pain or osteoarthritis.
(§2) Mechanical withdrawal thresholds to muscle pressure were measured with an analgesimeter exerting pressure on the gastrocnemius muscle previously injected with TNF. Forelimb grip strength was measured with a digital grip force meter after TNF injection into the biceps brachii muscles.
(§3) Adult male Sprague Dawley rats with a body weight of 250 g to 300 g were used (supplier: Charles River Sulzfeld Germany). Animals were group-housed (3 animals per cage) and maintained in a room with controlled temperature (21-22° C.) and a reversed light-dark cycle (12 h/12 h) with food and water available ad libitum. All experiments were approved by the Bavarian State animal experimentation committee and carried out in accordance with its regulations.
(§4) Recombinant rat tumor necrosis factor alpha (herein referred to as TNF) was obtained from R&D Systems, Minneapolis, Minn., USA. TNF was diluted in 0.9% NaCl and used in a concentration of 1 μg in 50 μl. Injections were performed in short halothane narcosis with a 30 g needle bilaterally into the gastrocnemius or into the biceps brachii muscle. All rats were used to the behavioral tests before injections and baseline values were recorded over three test days.
Mechanical withdrawal thresholds to muscle pressure were measured with an analgesimeter (Ugo Basile, Comerio, Italy). The rat is allowed to crawl into a sock which helps the rat to relax. The hind limbs were positioned such that an increasing pressure could be applied onto the gastrocnemius muscle (maximum 250 g). The pressure needed to elicit withdrawal was recorded. Means of 3 trials for each hind limb were calculated (interstimulus interval of >30 sec). Only animals with a significant TNF effect were included for further analysis.
Rats were injected with TNF into the M. gastrocnemius at […]. 18 hours later, rats were tested for pressure hyperalgesia pre- and post-application of the drugs. Rats were tested for pressure hyperalgesia 30 to 60 minutes after drug administration.
(§5) […] Injection volume of i.p. injections was 0.5 ml.
(§6) Data are shown in graphs displaying means and SEMs. Pre- and post-treatment data were compared using ANOVA (Analysis Of Variance) and a Tukey post hoc test. Means of treatment groups were compared using a one-way ANOVA and Dunnett's post hoc Test. Maximal possible effects (MPE) were calculated for all types of treatment.

[3] = tested on: Sprague Dawley rats; assay: TNF-induced reduction of forelimb grip strength, biceps brachii muscle; type: in vivo, rat; settings: for reversal of the TNF induced reduction of grip strength: 6 hours after TNF 1 μg into biceps brachii, 30 to 60 minutes after drug; for MPE versus vehicle, grip strength: FIG. 4; for dose at which the effect of TNF on grip strength is reversed / grip strength improved: i.p., grip strength test
Description: as §1, §2, §3, §4
Grip strength of the forelimbs was tested with a digital grip force meter (DFIS series, Chatillon, Greensboro, N.C., USA). The rat was positioned to grab the grid with the forelimbs and was gently pulled so that the grip strength could be recorded. Means of three trials were calculated. The effect of the TNF treatment was calculated for each animal separately and only animals with a significant TNF effect were included for further analysis.
Rats were injected with TNF into the M. biceps brachii at 8 am. 6 hours later, grip strength of the forelimbs was tested with a digital grip force meter. Drugs were applied, and grip strength was again tested after 30 to 60 minutes.
as §5, §6

[4] = tested on: Wistar rats; assay: Tactile allodynia (von Frey filaments) in iodoacetate rat model of osteoarthritic pain; type: in vivo
[5] = 30 mg/kg p.o., day 7 after iodoacetate
[6] = 3 mg/kg s.c., day 7 after iodoacetate

## O=C(O)Cc1ccccc1Nc1c(Cl)cccc1Cl [diclofenac]
[1]; 30 mg/kg s.c.
  paw pressure withdrawal threshold compared to iodoacetate/vehicle treated animals: increase in paw pressure withdrawal threshold
[1]; 30 mg/kg s.c., day 7 after iodoacetate
  mechanical hyperalgesia: reduced mechanical hyperalgesia

## NCC1(CC(=O)O)CCCCC1 [gabapentin]
[2]; 100 mg/kg i.p.
  reversal of muscular mechanical hyperalgesia (withdrawal thresholds to pressure): significant reversal
  Maximal Possible Effect (MPE) versus vehicle, muscle pressure: significantly different from vehicle
[2]
  full reversal of the muscle hyperalgesia: Neither pregabalin nor gabapentin lead to a full reversal
[3]; 100 mg/kg i.p.
  reversal of the TNF induced reduction of grip strength: significant reversal
  MPE versus vehicle, grip strength: significantly different from vehicle
[3]
  dose at which the effect of TNF on grip strength is reversed / grip strength improved: 100 mg/kg

## COC[C@@H](NC(C)=O)C(=O)NCc1ccccc1 [lacosamide, (R)-2-acetamido-N-benzyl-3-methoxy-propionamide]
[2]; 10 mg/kg i.p.
  Maximal Possible Effect (MPE) versus vehicle, muscle pressure: significantly different from vehicle
[2]; 30 mg/kg i.p.
  reversal of muscular mechanical hyperalgesia (withdrawal thresholds to pressure): complete reversal
  Maximal Possible Effect (MPE) versus vehicle, muscle pressure: significantly different from vehicle
[2]; 3, 10, 30 mg/kg i.p.
  muscle hyperalgesia induced by TNF injection in the paw pressure test, dose dependence: dose dependently improves
[3]; 10 mg/kg i.p.
  reversal of the TNF induced reduction of grip strength: significant reversal
  MPE versus vehicle, grip strength: significantly different from vehicle
[3]; 30 mg/kg i.p.
  reversal of the TNF induced reduction of grip strength: significant reversal
  MPE versus vehicle, grip strength: significantly different from vehicle
[3]
  dose at which the effect of TNF on grip strength is reversed / grip strength improved: 10 mg/kg
[4]; 30 mg/kg p.o., day 3 after iodoacetate, 60 minutes after drug
  improvement of tactile allodynia: improved
[4]; [5]
  improvement of tactile allodynia: improved
[4]; lower doses (3 and 10 mg/kg p.o.)
  improvement of tactile allodynia: showed a trend for such improvement
[1]; 3 mg/kg p.o.
  paw pressure withdrawal threshold compared to iodoacetate/vehicle treated animals: increase in paw pressure withdrawal threshold
[1]; 3 mg/kg p.o., day 7 after iodoacetate
  mechanical hyperalgesia: reduced mechanical hyperalgesia
[1]; 10 mg/kg p.o., day 7 after iodoacetate
  mechanical hyperalgesia: reduced mechanical hyperalgesia
[1]; 10 mg/kg p.o., day 14 after iodoacetate
  mechanical hyperalgesia: did not show a statistically significant effect
[1]; [5]
  mechanical hyperalgesia: reduced mechanical hyperalgesia

## Cc1c(N(C)CS(=O)(=O)O)c(=O)n(-c2ccccc2)n1C [metamizol]
[2]; 2 mg/kg i.p.
  reversal of muscular mechanical hyperalgesia (withdrawal thresholds to pressure): complete reversal
  Maximal Possible Effect (MPE) versus vehicle, muscle pressure: significantly different from vehicle
[3]; 2 mg/kg i.p.
  reversal of the TNF induced reduction of grip strength: significant reversal
  MPE versus vehicle, grip strength: significantly different from vehicle

## CN1CC[C@]23c4c5ccc(O)c4O[C@H]2[C@@H](O)C=C[C@H]3[C@H]1C5 [morphine]
[4]; 3 mg/kg s.c., day 3 after iodoacetate
  improvement of tactile allodynia: improved
[4]; [6]
  improvement of tactile allodynia: improved
[1]; 3 mg/kg s.c.
  paw pressure withdrawal threshold compared to iodoacetate/vehicle treated animals: increase in paw pressure withdrawal threshold
[1]; [6]
  mechanical hyperalgesia: reduced mechanical hyperalgesia

## CC(C)C[C@H](CN)CC(=O)O [pregabalin]
[2]; 30 mg/kg i.p.
  reversal of muscular mechanical hyperalgesia (withdrawal thresholds to pressure): significant reversal
  Maximal Possible Effect (MPE) versus vehicle, muscle pressure: significantly different from vehicle
[2]; 100 mg/kg i.p.
  reversal of muscular mechanical hyperalgesia (withdrawal thresholds to pressure): significant reversal
  Maximal Possible Effect (MPE) versus vehicle, muscle pressure: significantly different from vehicle
[2]
  full reversal of the muscle hyperalgesia: Neither pregabalin nor gabapentin lead to a full reversal
[3]; 100 mg/kg i.p.
  reversal of the TNF induced reduction of grip strength: significant reversal
  MPE versus vehicle, grip strength: significantly different from vehicle
[3]
  dose at which the effect of TNF on grip strength is reversed / grip strength improved: 100 mg/kg
